Data on 3 molecules can be found in EP1830856B1, “PREVENTING PATHOLOGICAL INCREASES IN THE RATE OF NERVE CELL SUICIDE IN IMMATURE NERVOUS SYSTEMS” (Olney, John W., priority 2004, dated 2006).

Data set [1] concerns apoptosis induced by anti-convulsants such as phenytoin and carbamazepine. The settings on record: tissue culture model; only in a dose range well above the plasma levels considered therapeutic in humans; Nonaka et al., 1998; cited from earlier work.
For the next data set, the system named is AKT. The settings on record: infant mice; within 30 minutes after administration of ethanol.
In the next data set the test system is immature brains. The settings on record: Ikonomidou et al., 2000; cited from earlier work.
In another data set the test system is ERK. The settings on record: infant mice; within less than 30 minutes after ethanol administration.
For data set [2], the system named is neuroapoptosis triggered by a cocktail of anesthetic drugs. The settings on record: immature rats undergoing anesthesia; subcutaneous; Beals et al, 2003; cited from earlier work.

As for `[Li]` [Lithium], in data set [1], the antiapoptotic action result is recorded as “act as an antiapoptotic agent”.
As for `CCO` [ethanol], the “activated isoform of AKT” value in the data set with AKT is “marked suppression”. Also, the “neuroapoptosis responses in immature brains” value with immature brains is “triggers especially severe neuroapoptosis responses”. The “activated isoforms of ERK” value in the data set with ERK was “rapid decrease”.
For `COc1ccc2[nH]cc(CCNC(C)=O)c2c1` [melatonin], the “protection against pathological neuroapoptosis (effects of pretreatment)” value in data set [2] is “only modest”.
